Activity calls are given as the source filed them. The calls are words filed in the database; no cut-off is given here.
Molecular target: Transient receptor potential cation channel subfamily M member 7 (Mus musculus) (UniProt Q923J1)
Experiment: Inhibition of Tet-induced Flag-tagged mouse TRPM7 expressed in HEK293 cells assessed as inhibition of channel-mediated cell death in presence of Mg2+ incubated for 24 to 48 hrs by propidium iodide uptake assay
Type: cell-based
Set-up: concentration or dose not given beside the values
Conditions: not given

Transient receptor potential cation channel subfamily M member 7 (Mus musculus), sequence (Q923J1 whole entry): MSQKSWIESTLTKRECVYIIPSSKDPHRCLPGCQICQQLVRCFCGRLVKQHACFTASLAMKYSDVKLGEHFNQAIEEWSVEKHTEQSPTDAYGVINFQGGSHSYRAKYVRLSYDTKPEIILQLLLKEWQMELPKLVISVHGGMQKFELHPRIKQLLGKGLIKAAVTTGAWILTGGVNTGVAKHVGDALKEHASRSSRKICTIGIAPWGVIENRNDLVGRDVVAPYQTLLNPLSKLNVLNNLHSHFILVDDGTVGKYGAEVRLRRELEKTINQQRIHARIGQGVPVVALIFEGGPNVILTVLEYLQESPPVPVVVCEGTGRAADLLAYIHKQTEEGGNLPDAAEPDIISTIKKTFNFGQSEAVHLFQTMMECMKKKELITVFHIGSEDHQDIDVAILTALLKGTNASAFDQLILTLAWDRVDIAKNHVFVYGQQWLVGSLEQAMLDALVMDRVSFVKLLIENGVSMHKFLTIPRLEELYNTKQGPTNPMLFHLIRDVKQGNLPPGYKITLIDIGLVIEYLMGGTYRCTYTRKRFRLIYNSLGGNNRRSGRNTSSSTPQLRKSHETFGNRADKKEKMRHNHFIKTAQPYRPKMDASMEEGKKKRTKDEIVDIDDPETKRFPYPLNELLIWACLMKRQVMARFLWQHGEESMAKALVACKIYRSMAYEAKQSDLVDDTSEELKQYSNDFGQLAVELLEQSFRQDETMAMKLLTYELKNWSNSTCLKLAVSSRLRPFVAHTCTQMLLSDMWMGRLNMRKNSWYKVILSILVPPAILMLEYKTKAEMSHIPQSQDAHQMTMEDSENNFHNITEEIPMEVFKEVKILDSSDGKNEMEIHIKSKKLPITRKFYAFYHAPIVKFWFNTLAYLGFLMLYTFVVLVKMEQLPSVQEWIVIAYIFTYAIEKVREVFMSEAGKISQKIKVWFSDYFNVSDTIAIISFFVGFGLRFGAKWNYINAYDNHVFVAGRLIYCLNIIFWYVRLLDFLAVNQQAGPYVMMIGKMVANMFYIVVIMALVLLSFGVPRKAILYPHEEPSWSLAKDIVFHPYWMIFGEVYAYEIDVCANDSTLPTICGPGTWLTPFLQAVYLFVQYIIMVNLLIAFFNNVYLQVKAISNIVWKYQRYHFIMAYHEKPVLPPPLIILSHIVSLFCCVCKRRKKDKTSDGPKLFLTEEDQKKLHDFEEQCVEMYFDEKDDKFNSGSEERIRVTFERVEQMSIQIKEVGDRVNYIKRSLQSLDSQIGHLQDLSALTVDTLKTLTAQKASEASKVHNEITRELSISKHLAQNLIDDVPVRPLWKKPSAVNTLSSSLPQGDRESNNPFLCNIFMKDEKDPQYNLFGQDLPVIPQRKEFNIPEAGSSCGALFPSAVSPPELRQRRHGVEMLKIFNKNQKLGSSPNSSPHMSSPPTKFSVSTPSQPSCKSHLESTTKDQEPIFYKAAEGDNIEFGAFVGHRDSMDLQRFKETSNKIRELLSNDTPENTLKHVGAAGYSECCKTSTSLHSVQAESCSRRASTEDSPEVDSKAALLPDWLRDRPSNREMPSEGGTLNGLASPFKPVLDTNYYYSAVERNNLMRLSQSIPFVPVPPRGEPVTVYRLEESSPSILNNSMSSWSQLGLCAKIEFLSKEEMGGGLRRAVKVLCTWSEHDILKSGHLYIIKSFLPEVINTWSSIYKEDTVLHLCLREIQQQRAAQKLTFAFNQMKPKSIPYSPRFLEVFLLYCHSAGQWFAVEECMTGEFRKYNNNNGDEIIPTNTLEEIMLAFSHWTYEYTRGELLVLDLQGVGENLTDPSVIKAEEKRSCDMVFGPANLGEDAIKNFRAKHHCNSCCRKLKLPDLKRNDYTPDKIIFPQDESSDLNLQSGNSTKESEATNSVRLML

Compound	inhibition
COc1cccc(OC)c1OCCNCC1CSc2ccccc2O1 (stereo unspecified)	Dose-dependent effect
COc1ccc(C[C@H](N)C(=O)N[C@H]2[C@@H](O)[C@H](n3cnc4c(N(C)C)ncnc43)O[C@@H]2CO)cc1	Dose-dependent effect
CCn1cnc2c(Nc3cccc(Cl)c3)nc(N[C@@H]3CCCC[C@@H]3N)nc21 (relative stereo)	Dose-dependent effect
Cc1ccc(NS(=O)(=O)c2ccc(-c3csc(C)n3)s2)c(C)c1	Active
CC[C@H]1CN2CCc3cc(OC)c(OC)cc3[C@@H]2C[C@@H]1C[C@H]1NCCc2cc(OC)c(OC)cc21	Active

Same assay, conditions: concentration not given here

Compound	inhibition [%]
CC(=O)OC[C@H]1OC(OC(C)(C)C)[C@H](OC(C)=O)[C@@H](OC(C)=O)[C@@H]1OC(C)=O (stereo partly specified)	40
O=C1NC(=O)/C(=C/c2cccc(C#Cc3ccccc3)c2)S1	60
Cc1cc(O)nc2c1c(-c1ccccc1)nn2C	< 30
Cc1ccc(C(=O)/C=C/C(=O)O)c(C)c1F	60
Clc1ccc2c(N3CCCCC3)ccnc2c1	< 30
Cc1cc(-c2nc(-c3ccc(C(C)(C)C)cc3)no2)no1	30
Brc1ccc2nc(C34CC5CC(CC(C5)C3)C4)cn2c1	60
O/N=C/c1ccc2c(c1)CCO2	< 30
C#CCSc1nc(-c2ccc(C(F)(F)F)cc2)nc(C)c1C(C)=O	< 30
COc1cccc(/C=C2/C=C(C3CCCS3)OC2=O)c1OC (stereo unspecified)	< 30
CCOC(=O)C(=CNNC(=O)c1cccs1)C(=O)OCC	60
COc1cc2c(cc1OCC(=O)Nc1ccc(C)cc1)C=CC(C)(C)O2	30
Cc1ccccc1NC(=O)NCc1cccs1	60
COc1ccccc1C1CCN(S(=O)(=O)c2ccc(C(C)C)cc2)CC1	80
COc1ccc2c(c1)CCCN2C(=O)c1sc2ccccc2c1Cl	60
N#Cc1ccc(/C=N/Nc2ncc(-c3ccc4c(c3)OCCCO4)s2)cc1	70
Cc1cc(C(=O)NNC(=O)Nc2ccc(Cl)cc2)no1	30
N#C/C(=N\Nc1ccc(Cl)c(Cl)c1)C(=O)C1CC1	40
FC(F)(F)c1ccccc1NC(=S)N1CCCN(c2nc3ccc(Cl)cc3s2)CC1	60
CSc1ncc2c(n1)CC(C)(C)C/C2=N/OC(=O)c1ccc(Cl)cc1	< 30
O=C1NC(=S)S/C1=C\c1cccc([N+](=O)[O-])c1	< 30
N#CC1=C(N)Oc2c3c(c4ccccc4c2C1c1ccc(C(F)(F)F)cc1)C(c1ccc(C(F)(F)F)cc1)C(C#N)=C(N)O3 (stereo unspecified)	< 30
CN(/N=C/Cc1nnnn1-c1ccc(Cl)cc1)c1ccccc1	< 30
COc1ccc(-c2[nH]ncc2CN2CCC(O)(c3ccc(Cl)cc3)CC2)cc1	< 30

Compound	inhibition [%]
O=C(Oc1ccc([N+](=O)[O-])cc1)c1c(Cl)cccc1Cl	50
COc1c(C(C)(C)C)cc(/N=C/c2ccccc2O)c(C)c1/N=C/c1ccccc1O	60
N#Cc1ccc(NC(=O)Nc2ccc(OCc3ccccc3)cc2)cc1	80
Cc1c(S(=O)(=O)Nc2ccc(Cl)cc2)sc2ccc(Cl)cc12	< 30
Cc1onc(-c2c(Cl)cccc2Cl)c1C(=O)OCCOc1ccc(C(F)(F)F)cc1[N+](=O)[O-]	60
COC(=O)/C(=C/N(C)C)NC(=O)c1ccccc1	< 30
CC(C)NC(=O)c1cc(-c2cccs2)on1	30
Cc1ccc([N+](=O)[O-])c(C(=O)NNC(=S)Nc2cccc(Cl)c2)c1	60
Cc1ccc(NS(=O)(=O)c2ccc(-c3cnc(C)s3)s2)c(C)c1	80
Cc1ccc(S(=O)(=O)NCCN2CCN(C(=O)OC(C)(C)C)CC2)cc1	< 30
Cn1c(CN2C(=O)CSc3ccc(C(F)(F)F)cc32)nnc1SCC(=O)c1ccccc1	< 30
O=C(Nc1ccc(F)cc1F)c1cc(Cl)cc(Cl)c1O	< 30
O=c1c(Cc2ccc(Br)cc2)csc2ccccc12	< 30
O=C1NC(=S)S/C1=C/c1ccc(Cl)cc1Cl	40
Cn1nc(-c2ccc(Cl)cc2)cc1NS(=O)(=O)c1cccc2nonc12	< 30
CS/C(=N\c1ccc(C)cc1)Nc1ccc(C)cc1	50
OC(CN1CCN(Cc2c(F)cccc2Cl)CC1)Cn1ccc2ccccc21 (stereo unspecified)	50
O=S(=O)(CS(=O)(=O)Oc1ccc(Cl)cc1Cl)Oc1ccc(Cl)cc1Cl	< 30
CC(C)(C)c1ccc(-c2nc(CSc3ccc(Cl)cc3)no2)s1	60
CN(C)c1cccc(N(C)C)c1CNC(=O)Nc1ccccc1	< 30
N#Cc1ccc2c(c1)Sc1ccccc1N2	60
Cc1nc(-c2ccc(C(F)(F)F)cc2)nc(O)c1Cl	< 30
COc1cc(OC)cc(C(C)(C)OC(=O)NCCC(=O)O)c1	< 30
CCOC(=O)c1nc(COc2ccccc2Cl)[nH]c(=O)c1C	< 30

Compound	inhibition [%]
N#Cc1cc(CCCCc2cc(C#N)c3ccccc3c2)cc2ccccc12	< 30
Cc1[nH]c2ccccc2c1CN1CCN(c2ccc(F)cc2)CC1	< 30
Cc1c(C)c(C)c(CO/N=C/c2cccs2)c(C)c1C	70
O=C(O)c1cc(C(F)(F)F)cc(C(F)(F)F)c1	< 30
COc1ccc(-c2[nH]ncc2CN2CCN(c3ccc(F)cc3)CC2)cc1	< 30
CSC(SC)=C(C#N)C(=O)c1ccccc1Cl	< 30
O=C(Nc1ccc(F)c(Cl)c1)c1ccccc1O	< 30
c1ccc2c(CNCc3cccc4ccccc34)cccc2c1	70
O=C(c1ccc(F)cc1)C1CCN(Cc2c[nH]c(-c3ccccc3)n2)CC1	30
O=C(O)CNC(=O)c1cccs1	< 30
CC(C)NC(=O)n1ccc(-c2nn(-c3ccc(F)cc3)ccc2=O)n1	< 30
N=C(NC(=O)c1cccc(Cn2cc(C(F)(F)F)ccc2=O)c1)c1ccc(Cl)cc1	40
Cc1nnsc1C(=O)NCc1csc2ccc(Cl)cc12	< 30
CCCCc1ccc(NC(=O)CSc2nc(-c3ccccc3)c(-c3ccccc3)o2)c(C)c1	< 30
c1ccc(CSc2nccc(-c3ccc4c(c3)CCO4)n2)cc1	70
CC12CCC(C(=O)N3CCSCC3)(OC1=O)C2(C)C (stereo unspecified)	< 30
O=C(NNC(=S)Nc1cc(Cl)ccc1Cl)C(O)(c1ccccc1)c1ccccc1	50
Cc1cc(C)c(-n2nnnc2SCC(=O)Nc2ccccc2Cl)c(C)c1	< 30
C#Cc1cccc(NC(=O)c2c(-c3c(Cl)cccc3Cl)noc2C)c1	< 30
N#CC(C#N)=CNc1cc(C(F)(F)F)ccc1N1CCc2ccccc2C1	50
O=S(=O)(c1cc(Cl)sc1Cl)N1CCN(CCc2ccccc2)CC1	< 30
CC(C)c1ccc(-c2cc(=O)c3ccccc3o2)cc1	80

Tested on: HEK293
Experiment: Effect on Tet-induced Flag-tagged mouse TRPM7 expression in HEK293 cells
Type: functional, cell-based
Conditions: Homo sapiens

Compound	Activity
O=C(O)c1cc(=O)cc(C(=O)O)[nH]1	inactive
COc1cccc(OC)c1OCCNCC1CSc2ccccc2O1 (stereo unspecified)	inactive
COC(=O)C1=C(C)NC(C)=C(C(=O)OCCN(C)Cc2ccccc2)C1c1cccc([N+](=O)[O-])c1 (stereo unspecified)	inactive
CCN(CC)CCCC(C)Nc1c2ccc(Cl)cc2nc2ccc(OC)cc12 (stereo unspecified)	inactive
O=C1c2c(O)ccc(O)c2C(=O)c2c(NCCNCCO)ccc(NCCNCCO)c21	inactive
C[n+]1cc2c3c(ccc2c2ccc4cc5c(cc4c21)OCO5)OCO3	inactive
